This is an account of results in patent US7723358B2, “Aroyl-O-piperidine derivatives for the treatment of diabetes-related problems” (Merck Patent GmbH, priority 2004, dated 2010).

Each structure is given as a SMILES string.

The target in the assay is T1, microsomal triglyceride transfer protein (MTP) (Mesocricetus auratus, UniProt P55158).
T1 construct: The supernatant comprising the soluble MTP is dialysed against Tris/HCl 150 mM; from tissue; host or cells: golden hamster liver microsomes, deoxycholate-solubilised supernatant, dialysed
T1 sequence (P55158 19-895): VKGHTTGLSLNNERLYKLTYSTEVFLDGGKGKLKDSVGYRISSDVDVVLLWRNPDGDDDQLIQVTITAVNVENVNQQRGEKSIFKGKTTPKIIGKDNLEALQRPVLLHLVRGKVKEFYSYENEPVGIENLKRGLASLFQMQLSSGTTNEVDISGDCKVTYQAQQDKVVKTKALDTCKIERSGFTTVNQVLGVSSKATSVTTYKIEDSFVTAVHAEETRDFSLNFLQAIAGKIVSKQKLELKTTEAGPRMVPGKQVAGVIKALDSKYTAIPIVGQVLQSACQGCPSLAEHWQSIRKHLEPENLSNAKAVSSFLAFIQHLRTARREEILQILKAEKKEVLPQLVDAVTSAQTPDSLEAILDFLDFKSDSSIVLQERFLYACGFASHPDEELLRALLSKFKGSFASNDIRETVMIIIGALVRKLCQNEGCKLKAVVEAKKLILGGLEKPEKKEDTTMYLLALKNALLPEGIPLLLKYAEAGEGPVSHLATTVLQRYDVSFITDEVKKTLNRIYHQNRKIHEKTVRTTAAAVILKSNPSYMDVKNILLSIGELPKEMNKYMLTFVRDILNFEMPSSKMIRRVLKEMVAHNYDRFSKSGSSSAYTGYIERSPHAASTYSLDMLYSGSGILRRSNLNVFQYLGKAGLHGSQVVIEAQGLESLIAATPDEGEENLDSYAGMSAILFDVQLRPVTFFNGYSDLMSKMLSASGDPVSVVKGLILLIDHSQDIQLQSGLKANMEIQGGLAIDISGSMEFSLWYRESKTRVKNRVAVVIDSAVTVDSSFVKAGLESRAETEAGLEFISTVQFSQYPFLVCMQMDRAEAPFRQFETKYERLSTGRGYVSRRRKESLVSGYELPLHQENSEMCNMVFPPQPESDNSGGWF
The assay can be described thus: Inhibition of MTP activity: transfer of [3H]-triolein from donor liposomes to biotinylated LDL, SPA. The settings on record: MTP from golden hamster liver; incubation 18-24 hours at 37° C.; read-out: IC50, concentration that allows a 50% inhibition of MTP. Type of assay: biochemical. How it is done: Analysis of the Inhibition of MTP Activity
The inhibition of the activity of microsomal triglyceride transfer protein (MTP) was tested by using the following operating protocol.
The inhibition of MTP activity with a compound can be quantified by observing the inhibition of the transfer of a labelled triglyceride, from a donor particle to an acceptor particle, in the presence of MTP. The procedure for the preparation of MTP is based on the method by Wetterau and Zilversmit (Biochem. Biophys. Acta (1986) 875, 610). A few grams of golden hamster liver are taken and then rinsed several times in a 250 mM sucrose solution at 0° C. All the following steps proceed at +4° C. A homogenate at a concentration of 50% in 250 mM sucrose is prepared using a Teflon mill and then centrifuged for 10 minutes at 10 000×g at +4° C. The supernatant is then centrifuged at 105 000×g for 75 minutes at +4° C. The supernatant is discarded and the microsomal pellet is taken up in 3 ml (per g of starting liver) of Tris/HCl 150 mM pH 8.0. 1-ml aliquot fractions are stored at −80° C. until the time of use.
After thawing a fraction of microsomes (1 ml), 12 ml of refrigerated Tris/HCl 50 mM, KCl 50 mM, MgCl2 5 mM pH 7.4 buffers and 1.2 ml of deoxycholate (0.54% in water) are added. After incubation for 30 minutes at +4° C. with gentle agitation, the suspension is centrifuged at 105 000×g for 75 minutes. The supernatant comprising the soluble MTP is dialysed against Tris/HCl 150 mM, NaCl 40 mM, EDTA 1 mM, 0.02% sodium azide pH 7.4 buffer (5 times one litre over 2-3 days). The MTP is stored at +4° C., is stable for at least 30 days and is used in unmodified form in the test.
The donor particles (liposomes) are prepared from 208 μl of L-phosphatidylcholine at a concentration of 10 mg/ml in chloroform, and 480 μl of [3H]-triolein at a concentration of 0.5 mCi/ml in toluene. After stirring, the solution is evaporated under nitrogen, taken up in 6 ml of Tris/HCl 50 mM, KCl 50 mM, MgCl2 5 mM pH 7.4 buffer and incubated in an ultrasound bath for 30 minutes at room temperature. The liposomes are stored at +4° C. and sonicated again for 10 minutes before each use.
The acceptor particles are biotinylated low density lipoproteins (LDL-biot). These particles are supplied by the company Amersham.
The reaction mixture is prepared in untreated ½ well white plates (Corning Costar) by addition, in the following order, of: 5 μl of HEPES 50 mM, NaCl 150 mM, BSA 0.1% (w/v), 0.05% sodium azide (w/v), pH 7.4 buffer; 5 μl of liposome; 5 μl of LDL-biot; 5 μl of test products in DMSO; 5 μl of MTP. After incubation for 18-24 hours at 37° C., the reaction is stopped by adding 100 μl of Amersham SPA (Scintillation Proximity Assay) beads coupled to streptavidin, and the radioactivity is counted using a Top Count (Packard) machine at least one hour later. The inhibition of the transfer of the triglycerides with a compound is reflected by a reduction in the transferred radioactivity.
The results are expressed in terms of the IC50, i.e. the concentration that allows a 50% inhibition of MTP.
In the case of `Cc1cccc(C(=O)Nc2cccc(OC3CCN(Cc4ccc(N(C)C)cc4)CC3)c2)c1-c1ccc(OC(F)(F)F)cc1` [Example 84, N-[3-[[1-[[4-(dimethylamino)phenyl]-methyl]-4-piperidinyl]oxy]phenyl]-6-methyl-4′-(trifluoromethoxy)[1,1′-biphenyl]-2-carboxamide], the IC50 worked out at 0.382 µM. The same measure for `Cc1ccc(CN2CCC(Oc3cccc(NC(=O)c4cccc(C)c4-c4ccc(OC(F)(F)F)cc4)c3)CC2)cc1` [Example 85, 6-methyl-N-[3-[[1-[(4-methylphenyl)-methyl]-4-piperidinyl]oxy]phenyl]-4′-(trifluoromethoxy)[1,1′-biphenyl]-2-carboxamide]: 0.392 µM; for `COCCOc1ccc(-c2ccccc2C(=O)Nc2cccc(OC3CCN(C(=O)OC(C)(C)C)CC3)c2)cc1` [Example 90, 1,1-dimethylethyl 4-[3-[[[4′-(2-methoxy-ethoxy)[1,1-biphenyl]-2-yl]carbonyl]-amino]phenoxy]-1-piperidinecarboxylate]: 0.392 µM.

In the case of `CCOC(=O)CCC(=O)N1CCC(Oc2cccc(NC(=O)c3cccc(C)c3-c3ccc(OC(F)(F)F)cc3)c2)CC1` [Example 96, ethyl 4-[3-[[[6-methyl-4′-(trifluoromethoxy)-[1,1′-biphenyl]-2-yl]carbonyl]amino]-phenoxy]-γ-oxo-1-piperidinebutanoate], the IC50 was 0.128 µM. As for `Cc1cccc(C(=O)Nc2cccc(OC3CCN(C(=O)c4cccs4)CC3)c2)c1-c1ccc(OC(F)(F)F)cc1` [Example 99, 6-methyl-N-[3-[[1-(2-thienylcarbonyl)-4-piperidinyl]oxy]phenyl]-4′-(trifluorometh-oxy)[1,1′-biphenyl]-2-carboxamide], the IC50 came out at 0.416 µM. With `COc1ccc(C(=O)N2CCC(Oc3cccc(NC(=O)c4ccccc4-c4ccc(OC(F)(F)F)cc4)c3)CC2)cc1OC` [Example 104], the IC50 was determined as 0.294 µM.

Consider `COc1ccc(CC(=O)N2CCC(Oc3cccc(NC(=O)c4cccc(C)c4-c4ccc(OC(F)(F)F)cc4)c3)CC2)cc1OC` [Example 105, N-[3-[[1-[2-(3,4-dimethoxyphenyl)-acetyl]-4-piperidinyl]oxy]phenyl]-6-methyl-4′-(trifluoromethoxy)[1,1′-biphenyl]-2-carboxamide], for which the IC50 came to 0.207 µM.

For `Cc1cccc(C(=O)Nc2cccc(OC3CCN(C(=O)c4cccnc4)CC3)c2)c1-c1ccc(OC(F)(F)F)cc1` [Example 106, 6-methyl-N-[3-[[1-(3-pyridinylcarbonyl)-4-piperidinyl]oxy]phenyl]-4′-(trifluorometh-oxy)[1,1′-biphenyl]-2-carboxamide], the IC50 is 0.182 µM.

Turning to `COc1ccc(CC(=O)N2CCC(Oc3cccc(NC(=O)c4ccccc4-c4ccc(OC(F)(F)F)cc4)c3)CC2)cc1OC` [Example 110, N-[3-[[1-[2-(3,4-dimethoxyphenyl)acetyl]-4-piperidinyl]oxy]phenyl]-4′-(trifluoro-methoxy)[1,1′-biphenyl]-2-carboxamide], the IC50 is 0.469 µM. As for `Cc1cccc(C(=O)Nc2cccc(OC3CCN(C(=O)c4ccco4)CC3)c2)c1-c1ccc(OC(F)(F)F)cc1` [Example 111, N-[3-[[1-(2-furanylcarbonyl)-4-piperidinyl]-oxy]phenyl]-6-methyl-4′-(trifluorometh-oxy)[1,1′-biphenyl]-2-carboxamide], the IC50 worked out at 0.409 µM. Take `O=C(Nc1cccc(OC2CCN(C(=O)c3ccc([N+](=O)[O-])cc3)CC2)c1)c1ccccc1-c1ccc(OC(F)(F)F)cc1` [Example 112, N-[3-[[1-(4-nitrobenzoyl)-4-piperidinyl]-oxy]phenyl]-4′-(trifluaromethoxy)[1,1′-biphenyl]-2-carboxamide]: the IC50 is 0.241 µM. The same measure for `Cc1cccc(C(=O)Nc2cccc(OC3CCN(C(=O)c4ccc([N+](=O)[O-])cc4)CC3)c2)c1-c1ccc(OC(F)(F)F)cc1` [Example 114, 6-methyl-N-[3-[[1-(4-nitrobenzoyl)-4-piperidinyl]oxy]phenyl]-4′-(trifluorometh-oxy)[1,1′-biphenyl]-2-carboxamide]: 0.202 µM. For the compound `O=C(Nc1cccc(OC2CCN(C(=O)c3ccno3)CC2)c1)c1ccccc1-c1ccc(OC(F)(F)F)cc1` [Example 115, N-[3-[[1-(5-isoxazolylcarbonyl)-4-piperi-dinyl]oxy]phenyl]-4′-(trifluoromethoxy)-[1,1′-biphenyl]-2-carboxamide], the IC50 turned out to be 0.433 µM.

Take `Cc1ccc(C(=O)N2CCC(Oc3cccc(NC(=O)c4cccc(C)c4-c4ccc(OC(F)(F)F)cc4)c3)CC2)cc1` [Example 116, 6-methyl-N-[3-[[1-(4-methylbenzoyl)-4-piperidinyl]oxy]phenyl]-4′-(trifluorometh-oxy)[1,1′-biphenyl]-2-carboxamide]: the IC50 was determined as 0.0494 µM. On to `O=C(Nc1cccc(OC2CCN(C(=O)c3cccnc3)CC2)c1)c1ccccc1-c1ccc(OC(F)(F)F)cc1` [Example 118, N-[3-[[1-(3-pyridinylcarbonyl)-4-piperidin-yl]oxy]phenyl]-4′-(trifluoromethoxy)[1,1′-biphenyl]-2-carboxamide], for which the IC50 was 0.202 µM. Take `O=C(Nc1cccc(OC2CCN(C(=O)c3ccccc3)CC2)c1)c1ccccc1-c1ccc(OC(F)(F)F)cc1` [Example 119, N-[3-[(1-benzoyl-4-piperidinyl)oxy]phenyl]-4′-(trifluoromethoxy)[1,1′-biphenyl]-2-carboxamide]: the IC50 came to 0.661 µM. Regarding `COC(=O)CC(=O)N1CCC(Oc2cccc(NC(=O)c3ccccc3-c3ccc(OC(F)(F)F)cc3)c2)CC1` [Example 125, methyl β-oxo-4-[3-[[[4′-(trifluoromethoxy)-[1,1′-biphenyl]-2-yl]carbonyl]amino]-phenoxy]-1-piperidinepropanoate], the IC50 is 0.252 µM.

With `CC(=O)OCC(=O)N1CCC(Oc2cccc(NC(=O)c3ccccc3-c3ccc(OC(F)(F)F)cc3)c2)CC1` [Example 126, N-[3-[[1-[2-(acetyloxy)acetyl]-4-piperidin-yl]oxy]phenyl]-4′-(trifluoromethoxy)[1,1′-biphenyl]-2-carboxamide], the IC50 stood at 0.0912 µM. Consider `Cc1cccc(C(=O)Nc2cccc(OC3CCN(C(=O)CC(C)C)CC3)c2)c1-c1ccc(OC(F)(F)F)cc1` [Example 129, 6-methyl-N-[3-[[1-(3-methyl-1-oxobutyl)-4-piperidinyl]oxy]phenyl]-4′-(trifluorometh-oxy)[1,1′-biphenyl]-2-carboxamide], for which the IC50 stood at 0.136 µM.
